Patent US3944498A, “Germicidal detergent containing a thienyliodonium salt” (The Dow Chemical Company, priority 1973, dated 1976)

What was measured:
S. aureus = assay: Agar dilution MIC in presence of Ivory soap, S. aureus; type: cell-based; details: Staphylococcus aureus; read-out: Minimum growth inhibitory concentration, S. aureus
Experimental: (§1) The growth-inhibitory activity of the below-indicated compounds against some microorganisms most relevant to the human skin was determined by standard agar dilution techniques to provide the data given in following Table 1.
(§2) In Table 1, the first column gives the chemical structures of the test compounds, while the additional columns give the names of the test organisms and the minimum inhibitory concentration in parts per million (p.p.m.) of the compounds listed for 100% growth inhibition against the particular microorganisms indicated. […] For each p.p.m. of test compound, 50 p.p.m. of Ivory soap was also present in the culture medium for part A of Table 1, while in part B of Table 1, the culture medium was free of any additive other than the test compound. The data for compounds 13 through 16 of part B of Table 1 were taken from Cannon U.S. Pat. No. 3,207,660 while those for compounds 17 and 18 were taken from trade literature.

P. aeruginosa = assay: Agar dilution MIC in presence of Ivory soap, P. aeruginosa; type: cell-based; details: Pseudomonas aeruginosa; read-out: Minimum growth inhibitory concentration, P. aeruginosa
Experimental: as §1, §2

S. typhosa [1] = assay: Agar dilution MIC in presence of Ivory soap, S. typhosa; type: cell-based; details: read-out: Minimum growth inhibitory concentration, S. typhosa
Experimental: as §1, §2

A. aerogenes = assay: Agar plate kill test with Ivory soap, A. aerogenes; type: cell-based; details: Ivory soap
Experimental: (§3) Phenyl-2-thienyliodonium chloride, 2,2'-bisthienyliodonium chloride, and, for comparative purposes, diphenyliodonium chloride are individually dispersed in Ivory soap to provide concentrates containing 1 part by weight of iodonium salt to 50 parts by weight of soap. The soap concentrates are serially dispersed and serially diluted with liquid nutrient agar at 42°C. to prepare culture media containing various concentrations of one of the iodonium salts. The culture media are uniformly inoculated with S. aureus and plated in petri dishes. The inoculation is carried out from broth cultures of the named organism containing about 5×10^8 organisms per milliliter in the proportion of one-tenth milliliter of bacterial culture per 20 milliliters of cultur medium containing each test compound. In a check operation, nutrient agar containing the same amount of Ivory soap is similarly inoculated with the same organism. After two days' incubation at 37°C., the plates are examined for microbial growth.
The procedure described above is repeated with varying concentrations of 4-chlorophenyl-2-thienyliodonium chloride, 3,4-dichlorophenyl-2-thienyliodonium chloride, and for comparative purposes bis(4-chlorophenyl)iodonium chloride, phenyl-4-chlorophenyliodonium chloride and bis(2,4-dichlorophenyl)iodoniumchloride in a series of tests wherein the culture media are inoculated individually with the organism A. aerogenes.
The procedure described above is once again repeated with each of 2,2'-bisthienyliodonium chloride, phenyl-2-thienyliodonium chloride, 4-bromophenyl-2-thienyliodonium chloride, bis(4-bromophenyl)iodonium chloride and bis(4-bromophenyl)iodonium bromide in a series of tests wherein the culture media are inoculated individually with the organism A. aerogenes.

S. typhosa [2] = assay: Agar plate kill test with Ivory soap, S. typhosa; type: cell-based
Experimental: as §3
The procedure described above is again repeated in a series of tests wherein the culture media are inoculated individually with the organism S. typhosa and wherein the culture media contain varying concentrations of one of the iodonium salts, as set forth in following Table II.

[3] = Range-finding median lethal dose (LD50) in mice; details: mouse, in vivo; single oral dose in corn oil, 14-day observation
Experimental: The range-finding oral median lethal dose (LD50) for iodonium and other antimicrobial compounds, including diphenyl- and thienyliodonium salts as well as several proprietary products was determined in mice. Compounds 1 through 11 of following Table 2 were fed to five groups of two mice each, the test compound being administered in suspension in corn oil as a single oral dose and the mortality experience of the mice was observed over a 14-day period. Data for compounds 12 through 15 were taken from U.S. Pat. No. 3,207,660, and for compounds 16 through 18 were taken from trade literature.

mice = details: 12-15 from U.S. Pat. No. 3,207,660; 17, 18 from trade literature; cited from earlier work
[4] = Klebsiella aerogenes, 48 h, 10 p.p.m., read-out: Percent Kill of A. aerogenes
[5] = 48 h, read-out: Percent Kill of S. Typhosa

| Structure (SMILES) | MIC (S. aureus) [µg/mL] | MIC (P. aeruginosa) [µg/mL] | MIC (S. typhosa [1]) [µg/mL] | LD50 [3] [mg/kg] | further results |
| --- | --- | --- | --- | --- | --- |
| c1csc([I+]c2cccs2)c1 [Compound 3 (Table 1)] | 0.5 | 5 | 0.5 | – | – |
| Clc1ccc([I+]c2ccccc2)cc1.[Cl-] [phenyl-4-chlorophenyliodonium chloride, reference compound] | – | – | – | 68 | killing at 10 ppm (A. aerogenes; [4]): 0%; killing at 10 ppm (S. typhosa [2]; [5]): 0% |
| c1ccc2c(c1)[I+]c1ccccc1-2 [Compound 13 (Table 2)] | – | – | – | – | Oral LD50 (mice) (mice): 8.75 ± 0.57 mg/kg |
| Clc1ccc([I+]c2cccs2)cc1Cl [Compound 6 (Table 2)] | – | – | – | 2000 | – |
| c1ccc([I+]c2ccccc2)cc1 [Compound 1 (Table 1)] | > 500 | > 500 | > 500 | – | – |
| Clc1ccc([I+]c2ccccc2)cc1 [Compound 4 (Table 1)] | 10 | > 100 | > 10 | – | – |
| Clc1ccc([I+]c2ccc(Cl)cc2)cc1 [bis(4-chlorophenyl)iodonium chloride, reference compound] | – | – | – | – | killing at 100 ppm (A. aerogenes; Klebsiella aerogenes, 48 h, 100 p.p.m., read-out: Percent Kill of A. aerogenes): 0% |
| Clc1ccc([I+]c2ccc(Cl)c(Cl)c2)cc1Cl [Compound 7 (Table 1)] | 5 | > 500 | > 10 | – | – |
| Brc1ccc([I+]c2ccc(Br)cc2)cc1 [bis(4-bromophenyl)iodonium chloride, reference compound] | – | – | – | – | killing at 10 ppm (A. aerogenes; [4]): 0%; killing at 10 ppm (S. typhosa [2]; [5]): 0% |
| c1csc([I+]c2cccs2)c1 [Compound 4 (Table 2)] | – | – | – | 500 | – |
| Clc1ccc([I+]c2cccs2)cc1 [Compound 6 (Table 1)] | 1 | 1 | 1 | – | – |
| Oc1c(Cl)cc(Cl)c(Cl)c1Cc1c(O)c(Cl)cc(Cl)c1Cl [hexachlorophene] | – | – | – | – | Oral LD50 (mice) (mice): 161 mg/kg |
| c1ccc(-c2ccc([I+]c3cccs3)cc2)cc1 [Compound 11 (Table 2)] | – | – | – | 4000 | – |
| Brc1ccc([I+]c2ccc(Br)cc2)cc1.[Br-] [bis(4-bromophenyl)iodonium bromide, reference compound] | – | – | – | – | Percent Kill of A. aerogenes (A. aerogenes; 10 p.p.m.): 0%; Percent Kill of S. Typhosa (S. typhosa [2]; 10 p.p.m., Ivory soap): 0% |
| Clc1ccc([I+]c2ccc(Cl)cc2Cl)c(Cl)c1 [bis(2,4-dichlorophenyl)iodonium chloride, bis(2,4-dichlorophenyl)iodoniumchloride, reference compound] | – | – | – | – | killing at 10 ppm (A. aerogenes; [4]): 0%; killing at 10 ppm (S. typhosa [2]; [5]): 0% |
| c1ccc([I+]c2ccccc2)cc1 [Compound 1 (Table 2)] | – | – | – | 56.2 | – |
| Cc1ccc(C)c([I+]c2cccs2)c1 [Compound 9 (Table 2)] | – | – | – | 3000 | – |
| Clc1ccc([I+]c2cccs2)cc1Cl [Compound 8 (Table 1)] | 1 | 1 | 1 | – | – |
| c1ccc([I+]c2cccs2)cc1 [Compound 2 (Table 1)] | 5 | 5 | 5 | – | – |
| c1ccc(Oc2ccc([I+]c3cccs3)cc2)cc1 [Compound 10 (Table 2)] | – | – | – | 3000 | – |
| Brc1ccc([I+]c2cccs2)cc1 [4-bromophenyl-2-thienyliodonium chloride] | – | – | – | – | killing at 5 ppm (A. aerogenes; Klebsiella aerogenes, 48 h, 5 p.p.m., read-out: Percent Kill of A. aerogenes): 100%; killing at 5 ppm (S. typhosa [2]; [5]): 100% |
| CCc1ccc([I+]c2cccs2)cc1 [Compound 8 (Table 2)] | – | – | – | 1500 | – |
| Clc1ccc([I+]c2cccs2)cc1Cl [3,4-dichlorophenyl-2-thienyliodonium chloride] | – | – | – | – | killing at 1 ppm (A. aerogenes; Klebsiella aerogenes, 48 h, 1 p.p.m., read-out: Percent Kill of A. aerogenes): 100%; killing at 1 ppm (S. typhosa [2]; [5]): 100% |
| CCOc1ccc([I+]c2ccccc2)cc1 [Compound 9 (Table 1)] | > 500 | > 500 | > 500 | – | – |
| Clc1ccc([I+]c2cccs2)cc1 [Compound 5 (Table 2)] | – | – | – | > 4000 | – |
| Cc1ccc([I+]c2cccs2)cc1 [Compound 7 (Table 2)] | – | – | – | 750 | – |
| CCOc1ccc([I+]c2cccs2)cc1 [Compound 10 (Table 1)] | 5 | 50 | 5 | – | – |
| Clc1ccc([I+]c2ccc(Cl)cc2)cc1 [Compound 5 (Table 1)] | 10 | > 100 | 10 | – | – |
| c1ccc([I+]c2cccs2)cc1 [Compound 3 (Table 2)] | – | – | – | 2000 | – |
